In ChEMBL document CHEMBL1127090, “In vitro cytotoxicity of GC sequence directed alkylating agents related to distamycin” (J Med Chem, 1993):
pIC50: −log10 of the molar value.

Assays:
Nucleic Acid [1] = experiment: Apparent binding constant to poly (dA.dT) DNA was evaluated by measuring the loss of ethidium fluorescence; format: nucleic-acid assay
K562 [2] = experiment: Inhibitory activity against K-562 (human chronic myeloid Leukemia) cells; format: functional, cell-based
Bos taurus = species: Bos taurus; experiment: Apparent binding constant to calf thymus DNA was evaluated by measuring the loss of ethidium fluorescence
Tequatrovirus T4 = experiment: Apparent binding constant to T4 coliphage DNA was evaluated by measuring the loss of ethidium fluorescence; format: functional
Nucleic Acid [3] = experiment: Apparent binding constant to poly (dG.dC) DNA was evaluated by measuring the loss of ethidium fluorescence; format: nucleic-acid assay
NCI-H23 = experiment: Cytotoxicity against the NCI-H23 Non-Small Cell Lung Cancer cell line from human cancer.; format: functional; details: read-out: LC50 (the source's name)
COLO 205 = experiment: Cytotoxicity against the COLO-205 Colon Cancer cell line from human cancer.; format: functional; details: read-out: LC50 (the source's name)
SNB-75 = experiment: Cytotoxicity against the SNB-75 CNS Cancer cell line from human cancer.; format: functional; details: read-out: LC50 (the source's name)
HL-60 = experiment: Cytotoxicity against the HL-60 (TB) Leukemia cell line from human cancer.; format: functional; details: read-out: LC50 (the source's name)
SK-MEL-2 = experiment: Cytotoxicity against the SK-MEL-2 Melanoma cell line from human cancer.; format: functional; details: read-out: LC50 (the source's name)
SF-268 = experiment: Cytotoxicity against the SF-268 CNS Cancer cell line from human cancer.; format: functional; details: read-out: LC50 (the source's name)
HCC 2998 = experiment: Cytotoxicity against the HCC2998 Colon Cancer cell line from human cancer.; format: functional; details: read-out: LC50 (the source's name)
M19-MEL = experiment: Cytotoxicity against the M19-MEL Melanoma cell line from human cancer.; format: functional; details: read-out: LC50 (the source's name)
K562 [4] = experiment: Cytotoxicity against the K-562 Leukemia cell line from human cancer.; format: functional; details: read-out: LC50 (the source's name)
DMS-114 = experiment: Cytotoxicity against the DMS114 Small Cell Lung Cancer cell line from human cancer.; format: functional; details: read-out: LC50 (the source's name)
SN12C = experiment: Cytotoxicity against the SN12C Renal Cancer cell line from human cancer.; format: functional; details: read-out: LC50 (the source's name)
OVCAR-4 = experiment: Cytotoxicity against the OVCAR-4 Ovarian Cancer cell line from human cancer.; format: functional; details: read-out: LC50 (the source's name)
KM12 = experiment: Cytotoxicity against the KM12 Colon Cancer cell line from human cancer.; format: functional; details: read-out: LC50 (the source's name)
SK-OV-3 = experiment: Cytotoxicity against the SK-OV-3 Ovarian Cancer cell line from human cancer.; format: functional; details: read-out: LC50 (the source's name)
EKVX = experiment: Cytotoxicity against the […] Non-Small Cell Lung Cancer cell line from human cancer; format: functional; details: read-out: LC50 (the source's name)
MOLT-4 = experiment: Cytotoxicity against the Molt-4 Leukemia cell line from human cancer.; format: functional; details: read-out: LC50 (the source's name)
SK-MEL-28 = experiment: Cytotoxicity against the SK-MEL-28 Melanoma cell line from human cancer.; format: functional; details: read-out: LC50 (the source's name)
HOP-62 = experiment: Cytotoxicity against the HOP-62 Non-Small Cell Lung Cancer cell line from human cancer; format: functional; details: read-out: LC50 (the source's name)
OVCAR-3 = experiment: Cytotoxicity against the OVCAR-3 Ovarian Cancer cell line from human cancer.; format: functional; details: read-out: LC50 (the source's name)
RXF 393 = experiment: Cytotoxicity against the RXF-393 Renal Cancer cell line from human cancer.; format: functional; details: read-out: LC50 (the source's name)
SW-620 = experiment: Cytotoxicity against the SW-620 Colon Cancer cell line from human cancer.; format: functional; details: read-out: LC50 (the source's name)
U-251 = experiment: Cytotoxicity against the U251 CNS Cancer cell line from human cancer.; format: functional; details: read-out: LC50 (the source's name)
Malme-3M = experiment: Cytotoxicity against the MALME-3M Melanoma cell line from human cancer.; format: functional; details: read-out: LC50 (the source's name)
DMS-273 = experiment: Cytotoxicity against the DMS273 Small Cell Lung Cancer cell line from human cancer.; format: functional; details: read-out: LC50 (the source's name)

SMILES: CCBr
- K app (Nucleic Acid [1]): 9.5e+06 M⁻¹

SMILES: CN(C)CCNC(=O)c1nc(NC(=O)c2nc(NC(=O)CBr)cn2C)cn1C
- pIC50 (K562 [2]): 3.40

SMILES: CN(C)CCNC(=O)c1nc(NC(=O)c2nc(NC(=O)c3nc(NC=O)cn3C)cn2C)cn1C
- K app (Bos taurus): 774000 M⁻¹
- K app (Tequatrovirus T4): 667000 M⁻¹
- K app (Nucleic Acid [3]): 613000 M⁻¹
- K app (Nucleic Acid [1]): 594000 M⁻¹

SMILES: CN(C)CCNC(=O)c1nc(NC(=O)c2nc(NC(=O)C3CC3)cn2C)cn1C
- pIC50 (K562 [2]): < 3.30

SMILES: CN(C)CCNC(=O)c1nc(NC(=O)c2nc(NC(=O)c3ccc(N(CCCl)CCCl)cc3)cn2C)cn1C
- K app (Bos taurus): 456000 M⁻¹
- CC50 (NCI-H23): 47.1 µM
- CC50 (COLO 205): 5.88 µM
- K app (Tequatrovirus T4): 236000 M⁻¹
- CC50 (SNB-75): 41 µM
- CC50 (HL-60): 7.84 µM
- CC50 (SK-MEL-2): 7.17 µM
- K app (Nucleic Acid [3]): 455000 M⁻¹
- CC50 (SF-268): 50 µM
- CC50 (HCC 2998): 33.7 µM
- CC50 (M19-MEL): 5.64 µM
- CC50 (K562 [4]): 17.2 µM
- CC50 (DMS-114): 5.83 µM
- CC50 (SN12C): 15.6 µM
- CC50 (OVCAR-4): 34.2 µM
- CC50 (KM12): 47 µM
- CC50 (SK-OV-3): 52.9 µM
- CC50 (EKVX): 47.5 µM
- pIC50 (K562 [2]): 4.90
- CC50 (MOLT-4): 18.1 µM
- CC50 (SK-MEL-28): 5.69 µM
- CC50 (HOP-62): 52.3 µM
- CC50 (OVCAR-3): 56 µM
- CC50 (RXF 393): 50.3 µM
- CC50 (SW-620): 9.95 µM
- CC50 (U-251): 6.73 µM
- CC50 (Malme-3M): 6.14 µM
- K app (Nucleic Acid [1]): 475000 M⁻¹

SMILES: CN(C)CCNC(=O)c1nc(NC(=O)c2nc(NC(=O)CCl)cn2C)cn1C
- pIC50 (K562 [2]): 3.46

SMILES: CN(C)CCNC(=O)c1nc(NC=O)cn1C
- K app (Bos taurus): 25000 M⁻¹
- K app (Nucleic Acid [3]): 2000 M⁻¹

SMILES: CN(C)CCNC(=O)c1nc(NC(=O)c2nc(NC(=O)c3nc(NC(=O)c4ccc(N(CCCl)CCCl)cc4)cn3C)cn2C)cn1C
- K app (Bos taurus): 591000 M⁻¹
- CC50 (NCI-H23): 0.96 µM
- CC50 (COLO 205): 0.97 µM
- K app (Tequatrovirus T4): 168000 M⁻¹
- CC50 (SNB-75): 0.61 µM
- CC50 (HL-60): 0.72 µM
- CC50 (SK-MEL-2): 0.65 µM
- K app (Nucleic Acid [3]): 495000 M⁻¹
- CC50 (SF-268): 0.77 µM
- CC50 (HCC 2998): 0.68 µM
- CC50 (DMS-273): 0.99 µM
- CC50 (M19-MEL): 0.56 µM
- CC50 (K562 [4]): 0.58 µM
- CC50 (DMS-114): 0.54 µM
- CC50 (SN12C): 0.61 µM
- CC50 (OVCAR-4): 0.61 µM
- CC50 (KM12): 0.96 µM
- CC50 (SK-OV-3): 0.83 µM
- CC50 (EKVX): 0.88 µM
- pIC50 (K562 [2]): 6.52
- CC50 (MOLT-4): 0.98 µM
- CC50 (SK-MEL-28): 0.91 µM
- CC50 (HOP-62): 1.17 µM
- CC50 (OVCAR-3): 0.72 µM
- CC50 (RXF 393): 0.66 µM
- CC50 (SW-620): 0.79 µM
- CC50 (U-251): 0.5 µM
- CC50 (Malme-3M): 2.63 µM
- K app (Nucleic Acid [1]): 950000 M⁻¹

SMILES: CN(C)CCNC(=O)c1nc(NC(=O)c2nc(NC=O)cn2C)cn1C
- K app (Bos taurus): 32000 M⁻¹
- K app (Tequatrovirus T4): 40000 M⁻¹
- K app (Nucleic Acid [3]): 23000 M⁻¹
- pIC50 (K562 [2]): < 3.30
- K app (Nucleic Acid [1]): 17000 M⁻¹

SMILES: Cn1cc(NC(=O)c2cc(NC(=O)c3cc(NC=O)cn3C)cn2C)cc1C(=O)NCCC(=N)N [STALLIMYCIN]
- K app (Bos taurus): 774000 M⁻¹
- K app (Tequatrovirus T4): 650000 M⁻¹
- K app (Nucleic Acid [3]): 203000 M⁻¹
- K app (Nucleic Acid [1]): 3.48e+07 M⁻¹

SMILES: N[C@@H](Cc1ccc(N(CCCl)CCCl)cc1)C(=O)O [MELPHALAN]
- pIC50 (K562 [2]): 4.46

SMILES: CN(C)CCNC(=O)c1nc(NC(=O)c2nc(NC(=O)C(Cl)Cl)cn2C)cn1C
- pIC50 (K562 [2]): < 3.30
